Test results taken from US20240245694A1, “Tricyclic Compounds and their Uses” (Novartis AG, priority 2022, published 2024).

How the values were obtained:
[1] = system: DLD1-WRN-KO cells; assay: Proliferation assay DLD1-WRN-KO (CellTiterGlo, 96 hours), off-target effects; format: cell-based; settings: Homo sapiens
Procedure, shortened: (§1)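 Cells in RPMI-1640/10% FCS were seeded overnight (SW48 2'000, DLD1-WRN-KO 1'500 cells/well), then exposed to eight 3-fold compound dilutions at 0.1% DMSO. ATP luminescence relative to a day-0 plate gives % growth (0% stasis, −100% complete kill). GI50 is the geometric mean of ≥2 independent replicates.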

[2] = system: SW48 colorectal xenografts; assay: Efficacy against subcutaneous SW48 colorectal xenografts; format: in vivo, Crl:NU(NCr)-Foxn1nu nude mice; settings: for % T/C / maximal regression: amorphous sodium salt; for anti-tumor effect / relapse while on treatment: p.o. qd; for anti-tumor effect: all dose levels of the study; for relapse while on treatment: time of relapse dose dependent
Experimental: Experiments were performed in female Crl:NU(NCr)-Foxn1^nu-homozygous nude mice (Charles River). Animals were housed under Optimized Hygienic Conditions in Allentown XJ cages (IVC, max. 6 mice per cage) with food and water at libitum and a 12 h:12 h light:dark cycle. Animals were allowed to acclimatize for at least 1 week before being enrolled in the experimental design. The study described here was performed according to license 1975 approved by the Basel Cantonal Veterinary Office.
Tumors were established by subcutaneous inoculation of human colorectal cancer SW48 cells (5×10^6 cells/animal in 100 μL in HBSS). SW48 human colorectal cancer cells were obtained from ATCC. The cells were cultured in RPMI-1640 medium (BioConcept Ltd., #1-41F01-1) supplemented with 10% FCS (Bio Concept #2-01F30-1), 2 mM L-glutamine (BioConcept Ltd., #5-10K50-H), 1 mM sodium pyruvate (Bio Concept #5-60F00-H) and 10 mM HEPES (Bio Concept #5-31F00-H) at 37° C. in an atmosphere of 5% CO2 in air. To establish SW48 xenografts cells were harvested and re-suspended in HBSS (Sigma, #H6648) before injecting subcutaneously 100 μL containing 5 million cells in the right flank of animals which were anaesthetized with isoflurane. Tumor size, in mm^3, was calculated following the formula: (L×W2×π/6); where W=width and L=length of the tumor. As a measure of efficacy the % T/C value is calculated at the end of the experiment according to:
Tumor regression was calculated according to: […]
Where Δtumor volumes represent the mean tumor volume on the evaluation day minus the mean tumor volume at the start of the experiment.
Amorphous sodium salt of test compound (corrected by salt factor) was dissolved in an aqueous 20% w/v solution of 2-hydroxypropyl-beta-cyclodextrin (HPBCD). A range of concentrations was prepared by serial dilution starting from the solution at highest concentration for the highest dose in the study.
Treatment was initiated about two weeks post tumor cell inoculation, when the xenografts had reached a mean volume of approximately 200 mm^3. The tumor bearing animals were randomized based on tumor volumes into experimental groups with 6 animals per group and treatment was initiated. Compounds were dosed orally (p.o.) once per day (qd) at 1, 3, 5 or 10 mg/kg (Example 18A) and at 0.1, 0.3, 1, 3 mg/kg (Example 21A). In addition, a control group treated once per day with vehicle (20% 2-hydroxypropyl-β-cyclodextrin) was included in each study. Tumor volumes and body weights were measured two times per week until the study termination.

[3] = system: SW48 cells; assay: Proliferation assay SW48 (CellTiterGlo, 96 hours); format: cell-based; settings: Homo sapiens
Procedure, shortened: as §1

Compound | GI50 [1] [nM] | % T/C ([2]; 1 mg/kg p.o. qd, day 32 of the study (fourteenth day of treatment)) [%] | maximal regression ([2]; 3 mg/kg p.o. qd, day 49 of the study (thirty first day of treatment)) [%] | maximal regression ([2]; 5 mg/kg p.o. qd, day 49 (thirty first day of treatment)) [%] | maximal regression ([2]; 10 mg/kg p.o. qd, day 63 (forty fifth day of treatment)) [%] | anti-tumor effect [2] | relapse while on treatment [2] | GI50 [3] [nM] | % T/C ([2]; 0.1 mg/kg p.o. qd, day 25 throughout 29th day of the study (tenth to fourteenth day of treatment)) [%] | % T/C ([2]; 0.3 mg/kg p.o. qd, day 29 of the study (fourteenth day of treatment), initial stasis followed by regrowth) [%] | maximal regression ([2]; 1 mg/kg p.o. qd, day 52 of the study (thirty seventh day of treatment)) [%] | maximal regression ([2]; 3 mg/kg p.o. qd, day 85 (seventieth day of the treatment)) [%]
Cc1ncnc(C(=O)N2CCN(c3c4n(c5nc(C6=CCOCC6)nn5c3=O)[C@@H](C(=O)Nc3ccc(C(F)(F)F)cc3Cl)C[C@H]4C)C[C@H]2C)c1O [Example 18A, (7R,9R)—N-(2-chloro-4-(trifluoromethyl)phenyl)-2-(3,6-dihydro-2H-pyran-4-yl)-6-((R)-4-(5-hydroxy-6-methylpyrimidine-4-carbonyl)-3-methylpiperazin-1-yl)-7-methyl-5-oxo-5,7,8,9-tetrahydropyrrolo[1,2-c][1,2,4]triazolo[1,5-a]pyrimidine-9-carboxamide] | > 50000 | 22 | 71 | 83 | 91 | Dose dependent anti-tumor effect was observed | Relapse was observed for all treatment groups | 40 | – | – | – | –
Cc1ncnc(C(=O)N2CCN(c3c4n(c5nc(C6=CCOCC6)nn5c3=O)[C@@H](C(=O)Nc3ccc(C(F)(F)F)cc3Cl)C[C@H]4C)[C@H]3CC[C@@H]32)c1O [Example 21A, (7R,9R)—N-(2-chloro-4-(trifluoromethyl)phenyl)-2-(3,6-dihydro-2H-pyran-4-yl)-6-((1S,6S)-5-(5-hydroxy-6-methylpyrimidine-4-carbonyl)-2,5-diazabicyclo[4.2.0]octan-2-yl)-7-methyl-5-oxo-5,7,8,9-tetrahydropyrrolo[1,2-c][1,2,4]triazolo[1,5-a]pyrimidine-9-carboxamide] | > 50000 | – | – | – | – | Dose dependent anti-tumor effect was observed | no relapse was observed in three animals treated at 1 mg/kg and in entire group treated at 3 mg/kg | 6 | 50 | 0 | 75 | 99
